We go through 11 compounds from PubChem BioAssay (NCI).

Molecules are shown by their SMILES.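 Interpolation was linear, between the two tested concentrations surrounding the appropriate level; five concentrations were tested over 48 hours in 96-well plates. At the GI50, growth is halved. TGI denotes the concentration required for complete inhibition of growth.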 Where only a bound is given, the exact number is not on record here.

What all share (test): inhibition of tumour cell growth, NCI panel, 48 h
Test [1] relates to 786-0 renal.
For test [2], the system named is SK-MEL-2 melanoma.
Test [3] relates to SW-620 colon.
Test [4] relates to RPMI-8226 leukemia.
For test [5], the system named is SNB-19 CNS.
Test [6] has as its system OVCAR-4 ovarian.
The test system of test [7] is SNB-75 CNS.
Test [8] deals with UACC-257 melanoma.
Test [9] relates to UACC-62 melanoma.
The subject of test [10] is SK-OV-3 ovarian.

For the compound `COc1cc(CNc2oc(-c3ccccc3)c(-c3ccccc3)c2C#N)cc(CN2CCN(C)CC2)c1O`, the GI50 in test [1] is 1.68 µM; in [2], 2.17 µM; in [3] it was 1.72 µM; in [4], 2.23 µM; in test [5], 1.81 µM; in [6], 1.86 µM. Besides, the GI50 in test [7] is 1.33 µM; in test [8], 1.84 µM; in test [9], 1.77 µM; in test [10], 2.22 µM. The TGI in test [1] was determined as 3.21 µM; in test [2], 4.56 µM; in [3], 3.33 µM; in test [4], 6.33 µM; in [5] it was 3.33 µM; in [6] it was 3.99 µM. The TGI was 2.94 µM in test [7], 3.71 µM in test [8], 3.47 µM in [9] and 4.06 µM in [10].
In the case of `O=C(Nc1cccc(C(F)(F)F)c1)Oc1ccc(Cl)c2cccnc12`, the GI50 was 5.09 µM in test [1]; 2.07 µM in test [2]; 1.49 µM in test [3]; 0.561 µM in test [4]; 2.52 µM in [5]; 0.831 µM in [6]. The GI50 was 2.59 µM in test [7], 1.32 µM in test [8], 1.15 µM in test [9] and 6.64 µM in test [10]. Further, the TGI is 15.4 µM in test [1]; 5.55 µM in test [2]; 12.9 µM in test [3]; 4.22 µM in test [4]; over 32.8 µM in test [5]; 14.8 µM in [6]. In addition, the TGI was determined as 17.8 µM in test [7], 3.24 µM in test [8], 3.57 µM in [9] and 29.3 µM in [10].
Regarding `COc1cc2nccc(Oc3ccc(NC(=O)c4cn(C(C)C)c(=O)n(-c5ccc(F)cc5)c4=O)cc3F)c2cc1OC`, the GI50 is over 100 µM in test [1]; over 68.1 µM in test [2]; 5.77 µM in test [3]; over 100 µM in test [4]; over 100 µM in [5]; over 20.8 µM in [6]. Also, the GI50 in test [7] is 1.03 µM; in test [8], 7.65 µM; in [9] it was 6.03 µM; in [10], over 100 µM. In addition, the TGI in [1], in [2], in test [3], in test [4], in test [5] and in [6] was over 100 µM in each case. The TGI in test [7] was over 21.9 µM; in test [8], over 77.5 µM; in test [9], over 100 µM; in [10], over 100 µM.
As to `CCN(Cc1c(F)cccc1Cl)c1ccc(CO)c(Cl)c1`, the GI50 in test [1] was 14.9 µM; in test [2], 0.785 µM; in test [3], 0.175 µM; in test [4] it was 0.173 µM; in test [5], 15.7 µM; in test [6], 0.0648 µM. Further, the GI50 was 11.1 µM in test [7], under 0.0248 µM in [8], 0.0419 µM in test [9] and 2.52 µM in test [10]. Moreover, the TGI in test [1] came out at 30.1 µM; in [2] it was 19.9 µM; in test [3], 20 µM; in [4] it was 22 µM; in test [5], 40.1 µM; in test [6], 0.661 µM. Further, the TGI amounted to 25.5 µM in test [7], 0.05 µM in test [8], 0.269 µM in [9] and 13 µM in test [10].
For `CC/C(=C/c1ccc(OC)cc1OC)[N+](=O)[O-]`, the GI50 in test [1] is 1.77 µM; in [2], 2.64 µM; in test [3], 2.28 µM; in test [4] it was 2.31 µM; in test [5], 4.35 µM; in test [6], 4.66 µM. Moreover, the GI50 in test [7] is 3.28 µM; in test [8], 2.31 µM; in test [9], 1.73 µM; in test [10], 16.7 µM. Besides, the TGI amounted to 3.29 µM in [1]; 8.73 µM in [2]; 4.93 µM in test [3]; 7.19 µM in test [4]; 16.6 µM in [5]; 17.3 µM in test [6]. In addition, the TGI in test [7] was 16.6 µM; in test [8], 6.29 µM; in [9], 3.96 µM; in [10], 30.4 µM.
`Nc1c2ccccc2nc2c(C(=O)Nc3ccc(S(N)(=O)=O)cc3)cccc12`: the TGI in test [1], in test [2], in test [3], in test [4], in [5] and in [6] was over 100 µM in each case. Also, the TGI in test [7], in [8], in test [9] and in test [10] was over 100 µM in each case.
As to `COc1cc2c3c(n(CCCNCCCN)c(=O)c2cc1OC)-c1cc2c(cc1C3=O)OCO2`, the GI50 is 2.83 µM in [1]; 2.35 µM in test [2]; 3.29 µM in test [3]; 2.44 µM in [4]; 1.52 µM in [5]; 2.83 µM in test [6]. The GI50 is 4.48 µM in [7], 7.31 µM in test [8], 3.41 µM in test [9] and 11.2 µM in test [10]. The TGI in test [1] came to 14.2 µM; in test [2] it was 7.33 µM; in [3], 16.4 µM; in [4] it was 11.8 µM; in test [5] it was 11.6 µM; in test [6] it was 16.7 µM. In addition, the TGI in [7] came to 36.7 µM; in [8], 23 µM; in test [9] it was 15.5 µM; in [10] it was 92.9 µM.
In the case of `CC(C)(C)OC(=O)Nc1ccc2c(c1)C(NC(=O)Nc1cccc(C#N)c1)CC(C)(C)O2` (stereo not given), the GI50 in test [1] was 5.05 µM; in [2], 6.4 µM; in test [3], 3.61 µM; in test [4], 2.63 µM; in test [5] it was 3.54 µM; in [6], 1.18 µM. Moreover, the GI50 was 7.01 µM in test [7], 1.07 µM in test [8], 0.834 µM in [9] and 8.68 µM in test [10]. For the same compound, the TGI in test [1] is over 100 µM; in test [2], 31.4 µM; in test [3] it was over 100 µM; in test [4], over 81.9 µM; in [5] it was over 100 µM; in test [6], over 100 µM. The TGI in [7] was over 100 µM; in test [8] it was 6.93 µM; in test [9] it was 17 µM; in [10], over 100 µM.
With `CC(C)(C)N=NC(C)(C)N=C=O`, the TGI in test [1], in [2], in test [3], in test [4], in test [5] and in test [6] was over 100 µM in each case. Also, the TGI in [7], in test [8], in test [9] and in [10] was over 100 µM in each case.
Consider `CC[C@H](C)[C@H](NC(=O)c1cccn1C)C(=O)N(C)[C@H](C[C@@H](OC(C)=O)c1nc(C(=O)N[C@@H](Cc2ccccc2)C[C@H](C)C(=O)OC)cs1)C(C)C`, for which the GI50 in test [1] was 0.172 µM; in test [2], 0.347 µM; in test [3] it was 0.205 µM; in test [4], 0.129 µM; in test [5] it was 0.196 µM; in test [6], 0.68 µM. The GI50 in test [7] was 0.0929 µM; in test [8], 18.2 µM; in test [9] it was 0.0569 µM; in [10], 0.124 µM. The TGI in test [1] is over 15.8 µM; in test [2], over 33.3 µM; in test [3], over 33.3 µM; in test [4], over 18.8 µM; in test [5], over 33.3 µM; in [6] it was over 33.3 µM. Also, the TGI is over 33.3 µM in test [7], over 33.3 µM in test [8], over 26 µM in [9] and over 33.3 µM in test [10].
Consider `CC(=O)[O-].N.N.N.N.[Co+3].[O-][Cl+3]([O-])([O-])[O-].[OH3+]`, for which the GI50 in test [1], in test [2], in test [3], in test [4], in [5] and in [6] was over 100 µM in each case. Besides, the GI50 in test [7] is 55.1 µM; in test [8] it was over 100 µM; in [9], over 100 µM; in test [10], over 100 µM. The TGI in [1], in test [2], in test [3], in test [4], in test [5] and in test [6] was over 100 µM each time. Moreover, the TGI in test [7], in test [8], in test [9] and in test [10] was over 100 µM each time.
